Laboratory results reported in patent US20160318866A1, “SUBSTITUTED BIPIPERIDINYL DERIVATIVES” (Bayer Pharma Aktiengesellschaft, priority 2013, published 2016).
Where a name gives a salt, the structure may show the parent alone.

target: T1, human α2C receptor (Homo sapiens, UniProt P18825); assay: Antagonism against the adrenoreceptor α2C (luminescence, recombinant CHO cell line); assay type: cell-based; conditions: not given
T1 construct: expressed in transfected cells; host or cells: CHO cells, also recombinantly expressing chimeric G protein Gαqi3 and mitochondrial obelin (mtOb)
T1 sequence (P18825 1-462): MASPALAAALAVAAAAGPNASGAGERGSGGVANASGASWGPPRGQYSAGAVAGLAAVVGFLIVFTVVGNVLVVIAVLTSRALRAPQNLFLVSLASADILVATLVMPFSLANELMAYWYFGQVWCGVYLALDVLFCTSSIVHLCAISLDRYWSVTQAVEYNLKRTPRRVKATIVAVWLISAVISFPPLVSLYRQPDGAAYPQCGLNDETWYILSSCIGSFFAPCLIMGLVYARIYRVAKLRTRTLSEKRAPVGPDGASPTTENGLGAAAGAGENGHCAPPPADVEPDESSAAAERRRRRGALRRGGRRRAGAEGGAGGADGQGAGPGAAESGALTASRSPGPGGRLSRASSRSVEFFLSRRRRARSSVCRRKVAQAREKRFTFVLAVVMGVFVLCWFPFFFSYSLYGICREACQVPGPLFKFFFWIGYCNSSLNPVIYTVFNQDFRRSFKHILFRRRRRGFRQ
Procedure: Antagonism against the adrenoreceptor α1A was tested using a recombinant human α1A receptor CHO cell line which additionally also recombinantly expresses mtAeq (mitochondrial aequorin). Antagonism against the adrenoreceptor α2A was tested using a recombinant human α2A-Gα16 receptor fusion protein CHO cell line (PerkinElmer Life Sciences) which additionally also recombinantly expresses mtAeq. Antagonism against the adrenoreceptor α2B was tested using a recombinant human α2B receptor CHO cell line (PerkinElmer Life Sciences) which additionally also recombinantly expresses mtAeq. Antagonism against the adrenoreceptor α2C was tested using a recombinant human α2C receptor CHO cell line which additionally also recombinantly expresses a chimaric G protein (Gαqi3) and mtOb (mitochondrial obelin).
The cells were cultivated at 37° C. and 5% CO2 in Dulbecco's modified Eagle's Medium/NUT mix F12 with L-glutamine which additionally contains 10% (v/v) inactivated foetal calf serum, 1 mM sodium pyruvate, 0.9 mM sodium bicarbonate, 50 U/ml penicillin, 50 μg/ml streptomycin, 2.5 μg/ml amphotericin B and 1 mg/ml Geneticin. The cells were passaged with enzyme-free Hank's-based cell dissociation buffer. All cell culture reagents used are from Invitrogen (Carlsbad, USA).
Luminescence measurements were carried out on white 384-well microtitre plates. 2000 cells/well were plated in a volume of 25 μl and cultivated for one day at 30° C. and 5% CO2 in cell culture medium with coelenterazine (α2A and α2B: 5 μg/ml; α1a/c and α2C: 2.5 μg/ml). Serial dilutions of the test substances (10 μl) were added to the cells. After 5 minutes, noradrenalinee was added to the cells (35 μl; final concentrations: 20 nM (α1a/c and α2C) or 200 nM (α2A and α2B)), and the emitted light was measured for 50 seconds using a CCD (charge-coupled device) camera (Hamamatsu Corporation, Shizuoka, Japan) in a light-tight box. The test substances were tested up to a maximum concentration of 10 μM. The IC50 values were calculated from the appropriate dose-response curves.

Row | Structure (SMILES) | IC50
1 | CNCC1(c2ccc(C(=O)N3CCC(N4CCCC(C)C4)CC3)cc2)CCC1 (stereo not drawn) [Example 68, (4-{1-[(Methylamino)methyl]cyclobutyl}phenyl) (3-methyl-1,4′-bipiperidin-1′-yl)methanone trifluoroacetic acid salt] | 4 nM

same assay, conditions: antagonism against adrenoreceptor α2C; noradrenaline 20 nM; tested up to 10 μM; read-out: IC50

Row | Structure (SMILES) | IC50
2 | Cc1noc(C)c1NC(=O)c1ccc(C(=O)N2CCC(N3CCCC(C)C3)CC2)cc1 (stereo not drawn) [Example 56, N-(3,5-dimethyl-1,2-oxazol-4-yl)-4-[(3-methyl-1,4′-bipiperidin-1′-yl)carbonyl]benzamide] | 35 nM
3 | CC1CCCN(C2CCN(C(=O)c3ccc(C4(CN(C)S(C)(=O)=O)CCC4)cc3)CC2)C1 (stereo not drawn) [Example 57, N-Methyl-N-[(1-{4-[(3-methyl-1,4′-bipiperidin-1′yl)carbonyl]phenyl}cyclobutyl)methyl]methanesulphonamide] | 18 nM
4 | COCC1CCCN(C2CCN(C(=O)c3ccc(C(C)(C)O)cc3)CC2)C1 (stereo not drawn) [Example 58, [4-(2-Hydroxypropan-2-yl)phenyl][3-(methoxymethyl)-1,4′-bipiperidin-1′-yl]methanone] | 25 nM
5 | CC(C)(O)c1ccc(C(=O)N2CCC(N3CCCC(c4nnc(C5CC5)[nH]4)C3)CC2)cc1 (stereo not drawn) [Example 60, [3-(5-Cyclopropyl-4H-1,2,4-triazol-3-yl)-1,4′-bipiperidin-1′-yl][4-(2-hydroxypropan-2-yl)phenyl]methanone] | 45 nM
6 | CC(C)(O)c1ccc(C(=O)N2CCC(N3CCCC(c4nc(C5CCC5)n[nH]4)C3)CC2)cc1 (stereo not drawn) [Example 61, [3-(5-Cyclobutyl-4H-1,2,4-triazol-3-yl)-1,4′-bipiperidin-1′-yl][4-(2-hydroxypropan-2-yl)phenyl]methanone] | 111 nM
7 | CCc1nc(C2CCCN(C3CCN(C(=O)c4ccc(C(C)(C)O)cc4)CC3)C2)n[nH]1 (stereo not drawn) [Example 62, [3-(5-Ethyl-1H-1,2,4-triazol-3-yl)-1,4′-bipiperidin-1′-yl][4-(2-hydroxypropan-2-yl)phenyl]methanone] | 154 nM
8 | Cc1n[nH]c(C2CCCN(C3CCN(C(=O)c4ccc(C(C)(C)O)cc4)CC3)C2)n1 (stereo not drawn) [Example 63, [4-(2-Hydroxypropan-2-yl)phenyl][3-(3-methyl-1H-1,2,4-triazol-5-yl)-1,4′-bipiperidin-1′-yl]methanone] | 128 nM
9 | CC(C)(O)c1ccc(C(=O)N2CCC(N3CCCC(c4ncn[nH]4)C3)CC2)cc1 (stereo not drawn) [Example 64] | 393 nM
10 | CC1CCCN(C2CCN(C(=O)c3ccc(C(C)(C)C(=O)NC(C)(C)C)cc3F)CC2)C1 (stereo not drawn) [Example 65, N-tert-Butyl-2-{3-fluoro-4-[(3-methyl-1,4′-bipiperidin-1′-yl)carbonyl]phenyl}-2-methylpropanamide] | 134 nM
11 | CC1CCCN(C2CCN(C(=O)c3ccc(C4(CNC=O)CCC4)cc3)CC2)C1 (stereo not drawn) [Example 66, N-[(1-{4-[(3-Methyl-1,4′-bipiperidin-1′-yl)carbonyl]phenyl}cyclobutyl)methyl]formamide hydrochloride] | 15 nM
12 | CC1CCCN(C2CCN(C(=O)c3ccc(C4(CN(C)C=O)CCC4)cc3)CC2)C1 (stereo not drawn) [Example 67, N-Methyl-N-[(1-{4-[(3-methyl-1,4′-bipiperidin-1′-yl)carbonyl]phenyl}cyclobutyl)methyl]formamide trifluoroacetic acid salt] | 51 nM
13 | CC(C)(O)c1ccc(C(=O)N2CCC(N3CCCC(c4nc(CC5CCC5)n[nH]4)C3)CC2)cc1 (stereo not drawn) [Example 69, {3-[5-(Cyclobutylmethyl)-4H-1,2,4-triazol-3-yl]-1,4′-bipiperidin-1′-yl}[4-(2-hydroxypropan-2-yl)phenyl]methanone] | 25 nM
14 | CC1CCCN(C2CCN(C(=O)c3ccc(C(=O)NCc4cccc(OC(F)(F)F)c4)cc3)CC2)C1 (stereo not drawn) [Example 70, 4-[(3-Methyl-1,4′-bipiperidin-1′-yl)carbonyl]-N-[3-(trifluoromethoxy)benzyl]benzamide trifluoroacetic acid salt] | 190 nM
15 | CC1CCCN(C2CCN(C(=O)c3ccc(C(=O)NC(C)(C)c4ccccc4)cc3)CC2)C1 (stereo not drawn) [Example 71, 4-[(3-Methyl-1,4′-bipiperidin-1′-yl)carbonyl]-N-(2-phenylpropan-2-yl)benzamide trifluoroacetic acid salt] | 64 nM
16 | CC1CCCN(C2CCN(C(=O)c3ccc(C(=O)NC(C)(C)c4ccc(C(F)(F)F)cc4)cc3)CC2)C1 (stereo not drawn) [Example 72, 4-[(3-Methyl-1,4′-bipiperidin-1′-yl)carbonyl]-N-{2-[4-(trifluoromethyl)phenyl]propan-2-yl}benzamide trifluoroacetic acid salt] | 116 nM
17 | CC1CCCN(C2CCN(C(=O)c3ccc(C(=O)NC(C)(C)c4ccc(Cl)c(Cl)c4)cc3)CC2)C1 (stereo not drawn) [Example 73, N-[2-(3,4-Dichlorophenyl)propan-2-yl]-4-[(3-methyl-1,4′-bipiperidin-1′-yl)carbonyl]benzamide trifluoroacetic acid salt] | 80 nM
18 | Cc1cccnc1CNC(=O)c1ccc(C(=O)N2CCC(C3CCCC(C)C3)CC2)cc1 (stereo not drawn) [Example 74, 4-{[4-(3-Methylcyclohexyl)piperidin-1-yl]carbonyl}-N-[(3-methylpyridin-2-yl)methyl]benzamide trifluoroacetic acid salt] | 155 nM
19 | CC1CCCN(C2CCN(C(=O)c3ccc(C(=O)NCc4ccnc(Cl)c4)cc3)CC2)C1 (stereo not drawn) [Example 75, N-[(2-Chloropyridin-4-yl)methyl]-4-[(3-methyl-1,4′-bipiperidin-1′-yl)carbonyl]benzamide trifluoroacetic acid salt] | 36 nM
20 | CC1CCCN(C2CCN(C(=O)c3ccc(C(=O)NCc4cccc(Cl)n4)cc3)CC2)C1 (stereo not drawn) [Example 76, N-[(6-Chloropyridin-2-yl)methyl]-4-[(3-methyl-1,4′-bipiperidin-1′-yl)carbonyl]benzamide trifluoroacetic acid salt] | 445 nM
21 | CC1CCCN(C2CCN(C(=O)c3ccc(C(=O)NC(C)(C)c4ccc(Cl)cc4)cc3)CC2)C1 (stereo not drawn) [Example 77, N-[2-(4-Chlorophenyl)propan-2-yl]-4-[(3-methyl-1,4′-bipiperidin-1′-yl)carbonyl]benzamide trifluoroacetic acid salt] | 54 nM
22 | CC1CCCN(C2CCN(C(=O)c3ccc(C(=O)NC(C)(C)c4ccccc4Cl)cc3)CC2)C1 (stereo not drawn) [Example 78, N-[2-(2-Chlorophenyl)propan-2-yl]-4-[(3-methyl-1,4′-bipiperidin-1′-yl)carbonyl]benzamide trifluoroacetic acid salt] | 24 nM
23 | CC1CCCN(C2CCN(C(=O)c3ccc(C(=O)NC(C)(C)c4cccc(Cl)c4)cc3)CC2)C1 (stereo not drawn) [Example 79, N-[2-(3-Chlorophenyl)propan-2-yl]-4-[(3-methyl-1,4′-bipiperidin-1′-yl)carbonyl]benzamide trifluoroacetic acid salt] | 54 nM
24 | CC1CCCN(C2CCN(C(=O)c3ccc(C(=O)NC(C)(C)c4cc(Cl)cc(Cl)c4)cc3)CC2)C1 (stereo not drawn) [Example 80, N-[2-(3,5-Dichlorophenyl)propan-2-yl]-4-[(3-methyl-1,4′-bipiperidin-1′-yl)carbonyl]benzamide trifluoroacetic acid salt] | 150 nM
25 | CC1CCCN(C2CCN(C(=O)c3ccc(C(=O)NCc4ccccc4C(F)(F)F)cc3)CC2)C1 (stereo not drawn) [Example 81, 4-[(3-Methyl-1,4′-bipiperidin-1′-yl)carbonyl]-N-[2-(trifluoromethyl)benzyl]benzamide trifluoroacetic acid salt] | 57 nM
26 | C[C@@H]1CCCN(C2CCN(C(=O)c3ccc(C(=O)NCc4ncc(F)cc4F)cc3)CC2)C1 [Example 82, (R)—N-[(3,5-Difluoropyridin-2-yl)methyl]-4-{[(3R)-3-methyl-1,4′-bipiperidin-1′-yl]carbonyl}benzamide trifluoroacetic acid salt] | 15 nM
27 | C[C@@H]1CCCN(C2CCN(C(=O)c3ccc(C(=O)NCc4cccnc4Cl)cc3)CC2)C1 [Example 83, (R)—N-[(2-Chloropyridin-3-yl)methyl]-4-{[(3R)-3-methyl-1,4′-bipiperidin-1′-yl]carbonyl}benzamide trifluoroacetic acid salt] | 7 nM
